Source: ChEMBL document CHEMBL1149418, “Intermolecular interactions in the crystal structures of potential HIV-1 integrase inhibitors” (Bioorg Med Chem Lett, 2006)

Molecular target: Human immunodeficiency virus type 1 integrase (Human immunodeficiency virus 1, UniProt Q7ZJM1)
Assay: Antiviral activity against HIV1 integrase

Human immunodeficiency virus type 1 integrase, sequence (Q7ZJM1 whole entry): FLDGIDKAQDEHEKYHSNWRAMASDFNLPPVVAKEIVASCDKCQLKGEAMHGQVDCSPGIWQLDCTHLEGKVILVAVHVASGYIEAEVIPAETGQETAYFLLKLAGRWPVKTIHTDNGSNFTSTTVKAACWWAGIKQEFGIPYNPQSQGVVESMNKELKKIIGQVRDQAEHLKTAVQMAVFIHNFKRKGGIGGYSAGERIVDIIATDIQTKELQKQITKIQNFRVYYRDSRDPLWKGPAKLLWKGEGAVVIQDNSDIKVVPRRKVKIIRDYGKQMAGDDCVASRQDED

IC50 [µM] | Structure (SMILES)
230 | O=C(O)c1ccc2ccc(/C=C/c3cccc(Cl)c3)nc2c1
230 | Oc1cccc2ccc(/C=C/c3cccc(Cl)c3)nc12
> 333 | Cc1ccc2c(N=O)ccc(O)c2n1

Structure (SMILES) | IC50 [µM]
COC(Nc1cc(Cl)c([N+](=O)[O-])cc1Cl)c1ccc2cccc(O)c2n1 (centres undefined) | 230
